According to PMC9731497, “Identification of potent anti-Cryptosporidium new drug leads by screening traditional Chinese medicines” (PLOS Neglected Tropical Diseases, 2022):
Counter-ions that a name gives are not always drawn. Like-named read-outs stand apart in the source and are kept apart here.

Experiments:
[1] = Host cell viability assay (Cell-Titer Glo)
Experimental: (§2) HCT-8 cells (4 × 10^4 cells/well) 100 μl were seeded in 96-well plates, cultured for 24 h, and then treated for 48 h with different concentrations of hit compounds (10^1, 1, 10^−1, 10^−2, 10^−3, 10^−4 μM). After a 48-h incubation period, equilibrate the 96-well plates in room temperature (RT) for 30 minutes. Then, equal volume of Cell-Titer Glo (Promega) reagent was added to each treated well, the plate was shaken on an orbital shaker for 2 minutes then incubated for 10 minutes at RT. The luminescence was quantified by the GloMax Navigator plate reader (Promega, Japan) and the cell viability was evaluated as directed by the kit manufacturer. The luminescence signal of control wells containing DMSO was set to 100% cell viability. […] Graph Pad Prism 7.0.1 was used to determine CC50 values.

HCT-8 cells = test: Host cell viability assay (Cell-Titer Glo); conditions: HCT-8 cells, 48 h, 1 μM
Experimental: as §2

C. parvum = test: Histopathological analysis and immunohistochemistry of ileum of C. parvum-infected mice; type: in vivo, Cryptosporidium parvum; parameters: key to severity of C. parvum infection in ileum, Score: -, no oocysts; 1+, mild focal infection; 2+, moderate multifocal infection; 3+, severe diffuse infection; conditions: for severity of C. parvum infection in ileum, Score: HE and immunohistochemistry, most severe area, day 14, dose not stated; for reduction of oocysts, histopathological and scanning electron microscopy findings: ileum of infected treated mice (S2 Fig)
Experimental: (§1) We performed a histopathological analysis to evaluate the growth inhibitory effects and toxicity of the hit compounds in C. parvum-infected mice. In brief, ileum was collected, fixed in 10% neutral buffered formalin, and paraffin-embedded. Each section was cut to a thickness of 4 μm for hematoxylin and eosin (HE) staining and immunohistochemistry. Immunohistochemistry (IHC) was performed following standard techniques using the Envision+ system (Agilent Technologies, Inc., Santa Clara, CA) and 3,3-diaminobenzidine (DAB)(Dojindo, Kumamoto, Japan). Anti-Toxoplasma gondii (RH strain) rabbit polyclonal IgG (Abcam, Cambridge, UK) was used as the primary antibody. The antibody cross reacts with C. Parvum. To reduce the endogenous peroxidase activity, the sections were incubated with 3% H2O2 for 5 minutes. Sections were incubated with primary antibodies overnight at 4°C. After washing with PBS with Tween 20 (PBST), sections were incubated with Envision+ single polymer solution (Agilent Technologies Inc.) for 30 minutes at room temperature. Sections were counterstained with Mayer’s hematoxylin. The severity of C. parvum infection was evaluated in the most severe area, and scored from—to 3+ (-, no oocysts; 1+, mild focal infection; 2+, moderate multifocal infection; 3+, severe diffuse infection). Sub-effects of drugs (hepatocellular damage) were evaluated for major histological changes in karyomegaly, hepatocellular hypertrophy, and interstitial fibrosis/inflammation. We also checked the organs (liver, heart, lung, kidney, and intestines) alteration at necropsy whether it has abnormal or normal.

C. parvum HNJ-1 strain [2] = test: In vivo C. parvum growth inhibition assay (oocyst shedding in feces of infected SCID mice, sugar flotation); parameters: species or system Cryptosporidium parvum; conditions: for numbers of oocysts discharged in the feces: 50, 25 and 12.5 mg/kg oral, infected SCID mice; for % of oocysts shedding / % reduction in oocysts shedding: initial dose-finding (S1 Table), 1 mouse; for % reduction in oocyst shedding: SCID mice n=3, vs untreated infected control
C. parvum HNJ-1 strain [3] = test: In vitro C. parvum growth inhibition assay (Sporo-Glo staining, fluorescence microscopy count in infected HCT-8 cells); type: cell-based, Cryptosporidium parvum; conditions: for EC50 / inhibition at 1 µM: Cryptosporidium parvum; for EC50: read-out: EC50 value; for inhibition at 1 µM: read-out: Parasite inhibition (%); for Selectivity index: ratio of CC50 (HCT-8) / EC50 (C. parvum)
Experimental: The primary screening of compounds for C. parvum was performed as follows: HCT-8 cells were seeded in 96-well plates at a density of 2 × 10^4 cells/well and allowed to grow overnight. Before infecting cells, Cryptosporidium oocysts were excysted to sporozoites. 87 compounds were tested against C. parvum at a single concentration of 1 μM. Each compound was tested once. Infected HCT-8 cells and uninfected HCT-8 cells were used as positive and negative controls, respectively, in medium containing 0.1% DMSO. Nitazoxanide was used as a standard comparative drug. In vitro inhibition assays were carried out as previously described. Briefly, oocysts were suspended in 1 ml of 0.1% sodium hypochlorite in PBS, incubated for 5 min at 4°C, centrifuged for 10 min at 3000 rpm, and washed three times in PBS. The oocysts were then suspended in excystation solution consisting of 0.75% sodium taurocholate and 0.25% trypsin dissolved in 0.1 M phosphate buffer (with 93.4 mM K2HPO4 and 6.5 mM KH2PO4; pH 8.0) and incubated at 37°C for 1 h. The oocyst/sporozoite suspensions were then rinsed in 1 x PBS (with 137 mM NaCl, 2.7 mM KCl, 8 mM Na2HPO4, and 2 mM KH2PO4; pH 7.5) once more before being filtered through a 5-μm pore-size PVDF filter (Millipore, Burlington, MA, USA) with 5 ml syringe to remove the oocyst wall. HCT-8 cells were seeded in 96-well plates (Thermo Fisher Scientific Inc., MA, USA) and incubated overnight. The cells were then infected with C. parvum sporozoites (4 ×10^4 sporozoites/well) containing in RPMI-1640 medium for 3 h. After 3h inoculation, the non-infected parasite or debris were washed with new RPMI-1640 media. At this point, in RPMI-1640 medium containing 1 μM library compounds were added. Infected cells were incubated for an additional 45 h. Following incubation, the infected cells were fixed for 10 minutes in ice-cold 100% methanol at room temperature. Plates were then carefully rinsed 3 times with PBS. The parasite infected cells were then blocked with 1% bovine serum albumin (BSA) in PBS for 30 minutes and then stained with Sporo-Glo (an anti-Cryptosporidium polyclonal antibody) (Waterborne Environmental, Inc., VA, USA) protected from light for 1 h at room temperature. Finally, cells were washed twice with 1 x PBS-T (1 x PBS supplemented with 0.01% Tween). A Keyence BZ-II 9000 was used to capture the images (KEYENCE, Osaka, Japan). The plates were imaged with a HS all-in-one fluorescence microscope using a 20 x objective. The image output was imported into Microsoft excel for data organization and analyses. All C. parvum parasite in the well were counted.
For a second investigation, four selective hit compounds were used to determine the half-maximum inhibitory concentration (EC50). The parasites were treated with various doses of compounds (ranging from 0.008–1 μM). HCT-8 cells (2 × 10^4 cells/well) were grown for 24 h before being infected with 4 × 10^4 C. parvum sporozoites in 96-well plates. […] Sporo-Glo was used for C. parvum staining as described above. Fluorescence microscopy with a Keyence BZ-II 9000 imager was used to count all Cryptosporidium in the wells (KEYENCE, Osaka, Japan). EC50 vales were determined by analyzing dose-response curves made by GraphPad Prism (GraphPad Software, CA, USA).

[4] = for body weight of treated infected mice: initial dose-finding doses, 11 consecutive days (S1 Fig)
Experimental: The growth inhibitory effect of the hit compounds was assessed in a mouse model infected with C. parvum oocysts. In this experiment, four-week-old female SCID mice (Charles River Laboratories, Shizuoka, Japan) were used. In the infected groups, mice were orally inoculated with 1.0 × 10^5 C. parvum oocysts by using sterile gavage needles. Initially, four compounds were tested at different concentrations to figure out the optimum dosages. Six groups of mice were given oral dosages of 50, 25, and 12.5 mg/kg body weight (BW) of two compounds (alisol-A and alisol-B). […] Bufotalin was given orally at three different doses to the other mouse group: 0.1, 0.05, and 0.025 mg/kg BW. […] The positive control group consisted of infected and untreated mice, whereas the negative control group consisted of noninfected and untreated mice. Treatment began on the third day after infection and lasted until the thirteenth day. The body weight and condition were checked every day, and treatment was given based on the body weight. On days 1, 3, 6, 7, 9, 12, 14, fecal samples were taken. The total number of oocysts per gram was calculated after counting the oocysts in the feces using the sugar flotation method. The treated and untreated mice were euthanized by cervical dislocation on day 14, and a thorough necropsy was performed.

[5] = Liver histology (sub-effects of drugs, hepatocellular damage) in treated mice; type: in vivo, SCID mice; conditions: HE stain, infected treated mice (S3 Fig)
Experimental: as §1

[6] = human, Host cell viability (%), HCT-8 cells, 48 h, 1 μM

Structure (SMILES)	CC50 at 48 h ([1]; human)	viability at 48 h, 1 µM [1, 6]	Host cell viability (%) (HCT-8 cells)	severity of C. parvum infection in ileum, Score (C. parvum)	reduction of oocysts, histopathological and scanning electron microscopy findings (C. parvum)	numbers of oocysts discharged in the feces (C. parvum HNJ-1 strain [2])	% of oocysts shedding (C. parvum HNJ-1 strain [2]; 12.5 mg/kg BW, 11 days)	% reduction in oocysts shedding (C. parvum HNJ-1 strain [2]; 12.5 mg/kg BW, 11 days)	EC50 (C. parvum HNJ-1 strain [3]; HCT-8, 45 h)	inhibition at 1 µM (C. parvum HNJ-1 strain [3]; HCT-8, 45 h)	Selectivity index (C. parvum HNJ-1 strain [3])	body weight of treated infected mice [4]	histological findings in liver [5]	also measured
C[C@H](C[C@H](O)[C@H]1OC1(C)C)C1=C2C[C@H](O)[C@H]3[C@@]4(C)CCC(=O)C(C)(C)[C@@H]4CC[C@]3(C)[C@@]2(C)CC1 [Alisol-B]	36700 nM	> 95%	97.6%	2+	no notable reduction of oocysts	no significant reduction	61.3%	38.7%	79.6 ± 13.8 nM	92.9%	460.6	–	–	adverse effects / death of treated mice ([4]; mouse, in vivo): died
C[C@H](C[C@H](O)[C@@H](O)C(C)(C)O)C1=C2C[C@H](O)[C@H]3[C@@]4(C)CCC(=O)C(C)(C)[C@@H]4CC[C@]3(C)[C@@]2(C)CC1 [Alisol-A]	–	–	99.5%	3+	no notable reduction of oocysts	no significant reduction	55.6%	44.4%	–	–	484.4	not significant	–	CC50 at 48 h ([1]; human, HCT-8 cells): 59600 nM; viability at 48 h, 1 µM ([1]; human, HCT-8 cells, Host cell viability (%), 48 h, 1 μM): > 95%; EC50 (C. parvum HNJ-1 strain [3]; HCT-8, C. parvum HNJ-1, 0.008–1 μM, 45 h, mean of three experiments): 123 ± 6.7 nM; inhibition at 1 µM (C. parvum HNJ-1 strain [3]; 1 μM, 45 h, C. parvum HNJ-1 strain in HCT-8 cells, first screen): 78.1%; body weight of treated infected mice ([4]; listed as alisol-A): no significant difference; adverse effects / death of treated mice ([4]; oral, at 50 and 25 mg/kg body weight, infected SCID mice): died
CC(=O)O[C@H]1C[C@]2(O)[C@@H]3CC[C@@H]4C[C@@H](O)CC[C@]4(C)[C@H]3CC[C@]2(C)[C@H]1c1ccc(=O)oc1 [Bufotalin]	10900 nM	> 95%	95.1%	1+	–	–	–	–	63.4 ± 18.7 nM	82.9%	172.3	not significant	inflammation and hepatocellular hypertrophy	No. of oocysts, Mean (C. parvum HNJ-1 strain [2]; 0.025 mg/kg BW oral, 11 days, SCID mice n=3, mean of days 3, 6, 7, 9, 12, 14): 92.3; % reduction in oocyst shedding (C. parvum HNJ-1 strain [2]; 0.025 mg/kg BW oral, 11 days): 58.2%; No. of oocysts, Mean (C. parvum HNJ-1 strain [2]; 0.05 mg/kg BW oral, 11 days, SCID mice n=3, mean of days 3, 6, 7, 9, 12, 14): 86.6; % reduction in oocyst shedding (C. parvum HNJ-1 strain [2]; 0.05 mg/kg BW oral, 11 days): 60.8%; No. of oocysts, Mean (C. parvum HNJ-1 strain [2]; 0.1 mg/kg BW oral, 11 days, SCID mice n=3, mean of days 3, 6, 7, 9, 12, 14): 48.5; % reduction in oocyst shedding (C. parvum HNJ-1 strain [2]; 0.1 mg/kg BW oral, 11 days): 78.1%; % of oocysts shedding (C. parvum HNJ-1 strain [2]; 0.1 mg/kg BW, 11 days): 28.8%; % reduction in oocysts shedding (C. parvum HNJ-1 strain [2]; 0.1 mg/kg BW, 11 days): 71.2%
CN1[C@@H]2CC[C@H]1C[C@@H](OC(=O)C(CO)c1ccccc1)C2 (some centres unmarked) [Atropine sulfate, reference compound]	–	–	–	2+	–	–	–	–	254 ± 30.3 nM	72.3%	–	not significant	inflammation	No. of oocysts, Mean (C. parvum HNJ-1 strain [2]; 50 mg/kg BW oral, 11 days, SCID mice n=3, mean of days 3, 6, 7, 9, 12, 14): 96.6; % reduction in oocyst shedding (C. parvum HNJ-1 strain [2]; 50 mg/kg BW oral, 11 days): 56.2%; No. of oocysts, Mean (C. parvum HNJ-1 strain [2]; 100 mg/kg BW oral, 11 days, SCID mice n=3, mean of days 3, 6, 7, 9, 12, 14): 91.1; % reduction in oocyst shedding (C. parvum HNJ-1 strain [2]; 100 mg/kg BW oral, 11 days): 58.7%; No. of oocysts, Mean (C. parvum HNJ-1 strain [2]; 200 mg/kg BW oral, 11 days (day 3–13 p.i.), SCID mice n=3, mean of oocysts shed on days 3, 6, 7, 9, 12, 14): 71.1; % reduction in oocyst shedding (C. parvum HNJ-1 strain [2]; 200 mg/kg BW oral, 11 days): 67.8%; % of oocysts shedding (C. parvum HNJ-1 strain [2]; 25 mg/kg BW, 11 days): 75.2%; % reduction in oocysts shedding (C. parvum HNJ-1 strain [2]; 25 mg/kg BW, 11 days): 24.8%; % reduction in oocysts shedding (C. parvum HNJ-1 strain [2]; 50 mg/kg BW, 11 days): 50.9%; % of oocysts shedding (C. parvum HNJ-1 strain [2]; 100 mg/kg BW, 11 days): 45.1%; % reduction in oocysts shedding (C. parvum HNJ-1 strain [2]; 100 mg/kg BW, 11 days): 54.9%
